Measured values from article PMC7722097 (ChemMedChem, 2020).
Entries after “also recorded” stand apart in the source; their conditions may differ.

Legend:
[1] = biological target: cIAP2-BIR3 (Homo sapiens, UniProt Q13489); assay: DELFIA displacement assay, cIAP2-BIR3; assay type: binding
[2] = biological target: cIAP1-BIR3 (Homo sapiens, UniProt Q13490); assay: DELFIA displacement assay, cIAP1-BIR3; assay type: binding
[3] = biological target: T1, BIR3 domain of XIAP (Homo sapiens, UniProt P98170); assay: DELFIA displacement assay, XIAP-BIR3; assay type: binding
[4] = biological target: T1, BIR3 domain of XIAP; assay: Kinetic analysis using the DELFIA assay; assay type: binding
[5] = biological target: wt-BIR3 (Lys311) domain of XIAP (Homo sapiens, UniProt P98170); assay: Denaturation thermal shift, wt BIR3 of XIAP; conditions: for Thermal shift data ATm XIAP-BIR3: Table 2
[6] = biological target: HA-BIR3 of XIAP-expressing HEK293T cells (Homo sapiens, UniProt P98170); assay: Immunoblot of HA-BIR3 XIAP-expressing HEK293T cells; assay type: cell-based; conditions: 10 μM compound, 6 h, anti-HA antibody
Chain of HA-BIR3 of XIAP-expressing HEK293T cells (P98170 253-347 limits assumed): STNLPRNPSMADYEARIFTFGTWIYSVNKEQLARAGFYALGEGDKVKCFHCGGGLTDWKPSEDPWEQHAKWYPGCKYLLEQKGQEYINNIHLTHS

T1 sequence (P98170 253-347): as the sequence (P98170 253-347 limits assumed) above
Chain of wt-BIR3 (Lys311) domain of XIAP (P98170 253-347): as the sequence (P98170 253-347 limits assumed) above
Chain of cIAP1-BIR3 (Q13490 258-363): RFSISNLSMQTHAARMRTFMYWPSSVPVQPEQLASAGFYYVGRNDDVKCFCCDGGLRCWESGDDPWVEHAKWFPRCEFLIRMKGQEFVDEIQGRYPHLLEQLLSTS
Chain of cIAP2-BIR3 (Q13489 244-349): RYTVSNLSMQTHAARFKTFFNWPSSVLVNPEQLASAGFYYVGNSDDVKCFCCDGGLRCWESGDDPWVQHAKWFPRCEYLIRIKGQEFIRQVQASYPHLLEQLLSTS

Compound | IC50 [1] [nM] | IC50 [2] [nM] | IC50 [3] [nM] | Selectivity XIAP vs cIAP1/2, in words ([3]; from DELFIA IC50 values of Table 2) | Ki [4] [nM] | Thermal shift data ATm XIAP-BIR3 ([5]; pre-incubation 30min (top value) at room temperature) [°C] | Thermal shift data ATm XIAP-BIR3 ([5]; pre-incubation 2h (bottom value) at room temperature) [°C] | ΔTm, BIR3 domain of XIAP, as stated in text or legend ([5]; approximate values or bounds in running text, incubation 30 min or 2 h) [°C] | Covalent adduct formation in cell (band shift) [6] | Stabilization of HA-BIR3 in cell (western blot band intensity) [6]
CN[C@@H](C)C(=O)N[C@@H](CNCc1ccc(S(=O)(=O)F)cc1)C(=O)N1CCC[C@H]1C(=O)N[C@@H]1CCc2c(F)cccc21 [compound 12, 4-((((S)-3-((S)-2-(((R)-4-fluoro-2,3-dihydro-1Hinden-1-yl)carbamoyl)pyrrolidin-1-yl)-2-((S)-2(methylamino)propanamido)-3oxopropyl)amino)methyl)benzene-1-sulfonyl fluoride] | 58.5 ± 0.1 | 22 ± 4 | – | – | – | – | – | – | – | –
CN[C@@H](C)C(=O)N[C@@H](CNC(=O)c1ccc(S(=O)(=O)F)c(OC)c1)C(=O)N1CCC[C@H]1C(=O)N[C@@H]1CCc2c(F)cccc21 [compound 13, 4-(((S)-3-((S)-2-(((R)-4-fluoro-2,3-dihydro-1Hinden-1-yl)carbamoyl)pyrrolidin-1-yl)-2-((S)-2(methylamino)propanamido)-3-oxopropyl)carbamoyl)-2methoxybenzene-1-sulfonyl fluoride] | 492 ± 26 | 141 ± 15 | 15.6 ± 0.8 | more potent towards XIAP; also recorded: significantly more selective for XIAP compared to cIAP1/2 | 85 ± 3 | 27.0 ± 0.2 | 27.2 ± 0.1 | > 20 | band shift | stabilized HA-BIR3; also recorded: most intense band
